Marks after values point to notes of the source that are not given here.
Key:
[1] = Experiment 1-1 feeding test on rat: weight and amount of feed taken; format: in vivo; settings: 4 weeks
Source text: (§1) Fifty 5-weeks aged male Wister-rats, having a weight of 110 to 120 grams, commercialized by Charles River Japan, Kanagawa, Japan, were fed on a non-fiber feed having a composition shown in Table 1 for one week for habituation. After the habituation, the rats were randomly divided into five groups and each group was fed on either of feeds shown in Table 1, i.e., a non-fiber feed, a feed in which cellulose was incorporated into the non-fiber feed to give a content of 5% (hereinafter, abbreviated as “fiber feed”), a feed in which powdery anhydrous crystalline CTS (purity of CTS: 99.5%), prepared by the method of Example A-3 described later, was incorporated into the non-fiber feed to give a content of 1, 2, or 5%, on a dry solid basis, and the feeding test was carried out for four weeks. A fiber-feed and three kinds of feeds comprising CTS were prepared to give the total content of cellulose or CTS and corn starch of 44.75% to the total weight of each feed. The rats were kept under the conditions of keeping the temperature at 25° C., lighting and shading for 12 hours each/day, and allowing the rats to eat the respective feed and water freely. After the completion of the feeding test, weight of individuals in each group was measured and an average weight and an average increase of weight of each group during the test period were calculated. Also, the total amount of feed fed to individual rat in each group during the 4-weeks test period and an average amount of CTS taken per day per kg-weight-rat were calculated and the results are in Table 2.

male Wister-rats [2] = assay: Experiment 1-1 liver weight and lipids in liver; format: in vivo; settings: 4 weeks, rat
Source text: as §1
(§2) After collecting the blood described above, each rat was killed by dislocating its cervical vertebrae and anatomized. Then, adipose tissues surrounding intestinal membrane, kidney, and testis, as well as liver and cecum, were collected. The wet-weight of those adipose tissues was measured and the results are in Table 4. In the case of liver, the wet-weight and the amount of total lipid, total cholesterol, triglyceride, and phospholipids were measured and the results are in Table 5. The amount of total lipid, total cholesterol, triglyceride, and phospholipids in the liver were measured by the steps of homogenizing four parts by weight of liver with four parts by weight of water using a homogenizer; extracting lipid by repeating three-times the following procedure of adding eight milliliters of a chloroform-methanol (2:1, by volume) solution, stirring the mixture, and centrifuging (3,000 rpm, 15 min) to collect chloroform phase; concentrating the resulting chloroform solution; and measuring those according to the same procedure used in the case of lipids in blood plasma.

male Wister-rats [3] = assay: Experiment 1-1 observation of diarrhea during feeding test; format: in vivo, rat
Source text: as §1
The symptom of diarrhea was not observed in rats fed on a feed with CTS content of 2%.

male Wister-rats [4] = assay: Experiment 1-1 amount of lipids in blood plasma; format: in vivo; settings: 4 weeks, rat
Source text: as §1
After the feeding test, each rat was fasted for one day and incised under anesthesia with ether. Then, blood was collected from the main vein of each rat using a syringe treated with 1% EDTA. Each collected blood was centrifuged at 3,500 rpm for 10 minutes to separate blood plasma and the contents of total cholesterol, triglyceride, and phospholipids in the resulting blood plasma were measured by using kits, “CHOLESTEROL C-TEST-WAKO”, “TRIGLYCERIDE-TEST-WAKO”, and “PHOSPHOLIPID C-TEST-WAKO”, respectively, commercialized by Wako Pure Chemical Industries, Ltd., Osaka, Japan. In order to check the hepatic function disorder, GOT activity in the blood plasma was measured using a kit, “GOT-TEST-WAKO”, commercialized by Wako Pure Chemical Industries, Ltd., Osaka, Japan. The content of LDL-cholesterol was calculated by subtracting the content of HDL-cholesterol from the total content of cholesterol. A significant difference test was done with respect to the group fed on fiber feed. In the case of cholesterol, a significant difference test was done with respect to the group fed on non-fiber feed because it was believed that cellulose has no activity of reducing the amount of cholesterol by oral intake as described in “SHOKUMOTSU-SENI KISO-TO-OYO (Dietary fiber, its basis and application)” published by ASAKURA-SHOTEN in 1997.

male Wister-rats [5] = assay: Experiment 1-1 wet-weight of adipose tissues around organs; format: in vivo; settings: 4 weeks, rat
Source text: as §1, §2

male Wister-rats [6] = assay: Experiment 1-1 GOT activity in blood plasma (hepatic function disorder check); format: in vivo, rat; settings: for GOT: blood plasma, 4 weeks, rat
Source text: as §1
After the feeding test, each rat was fasted for one day and incised under anesthesia with ether. Then, blood was collected from the main vein of each rat using a syringe treated with 1% EDTA. Each collected blood was centrifuged at 3,500 rpm for 10 minutes to separate blood plasma and the contents of total cholesterol, triglyceride, and phospholipids in the resulting blood plasma were measured by using kits, “CHOLESTEROL C-TEST-WAKO”, “TRIGLYCERIDE-TEST-WAKO”, and “PHOSPHOLIPID C-TEST-WAKO”, respectively, commercialized by Wako Pure Chemical Industries, Ltd., Osaka, Japan. In order to check the hepatic function disorder, GOT activity in the blood plasma was measured using a kit, “GOT-TEST-WAKO”, commercialized by Wako Pure Chemical Industries, Ltd., Osaka, Japan. The content of LDL-cholesterol was calculated by subtracting the content of HDL-cholesterol from the total content of cholesterol. A significant difference test was done with respect to the group fed on fiber feed. […]

male Wister-rats [7] = assay: Experiment 1-1 cecal tissue, cecal content and bile acids in cecum; format: in vivo; settings: 4 weeks, rat
Source text: Fifty 5-weeks aged male Wister-rats, having a weight of 110 to 120 grams, commercialized by Charles River Japan, Kanagawa, Japan, were fed on a non-fiber feed having a composition shown in Table 1 for one week for habituation. After the habituation, the rats were randomly divided into five groups and each group was fed on either of feeds shown in Table 1, i.e., a non-fiber feed, a feed in which cellulose was incorporated into the non-fiber feed to give a content of 5% (hereinafter, abbreviated as “fiber feed”), a feed in which powdery anhydrous crystalline CTS (purity of CTS: 99.5%), prepared by the method of Example A-3 described later, was incorporated into the non-fiber feed to give a content of 1, 2, or 5%, on a dry solid basis, and the feeding test was carried out for four weeks. A fiber-feed and three kinds of feeds comprising CTS were prepared to give the total content of cellulose or CTS and corn starch of 44.75% to the total weight of each feed. […] After the completion of the feeding test, weight of individuals in each group was measured and an average weight and an average increase of weight of each group during the test period were calculated. Also, the total amount of feed fed to individual rat in each group during the 4-weeks test period and an average amount of CTS taken per day per kg-weight-rat were calculated and the results are in Table 2.
Just after extirpating cecum as described above, its content was collected and weighted. The concentration of bile acids was measured by the steps of adding two milliliters of 80% (v/v) methanol aqueous solution to 0.2 gram of the cecal content, extracting bile acids at 70° C. for 30 min, centrifuging (3,500 rpm, 10 min) the mixture, drying the resulting supernatant in a dessicator with P2O5 for overnight, and measuring bile acids using a kit, “BILE ACID-TEST WAKO”, commercialized by Wako Pure Chemical Industries, Ltd., Osaka, Japan. The amount of bile acids was calculated by multiplying the concentration of bile acids and weight of the cecal content. […]

[8] = 5% (w/w) CTS (Fiber: 5% cellulose) in feed

symptom of diarrhea (male Wister-rats [3]; rats fed on a feed with CTS content of 2%): not observed
duration of symptom of diarrhea after initial intake of CTS (male Wister-rats [3]; rats fed on a feed with CTS content of 5%): 2 to 3 days
symptom of diarrhea (individuals affected) (male Wister-rats [3]; rats fed on a feed with CTS content of 5%, then cured): two individuals in ten individuals
GOT (male Wister-rats [6]; 1% (w/w) CTS in feed): 10.3 IU
GOT (male Wister-rats [6]; 2% (w/w) CTS in feed): 10.2 IU
GOT (male Wister-rats [6]; [8]): 10.7 IU
GOT values (markers of functional disorder of liver) during the test period (male Wister-rats [6]; rats, regardless of the intake of CTS): not significantly changed
SMILES: OCC1OC2OCC3O[C@H](O[C@H]4C(O)C(CO)OC(OCC5O[C@H](O[C@@H](C1O)C2O)C(O)C(O)[C@@H]5O)C4O)C(O)C(O)[C@@H]3O (stereo partly drawn) [CTS, cyclo {→6)-α-D-glucopyranosyl-(1→3)-α-D-glucopyranosyl-(1→6)-α-D-glucopyranosyl-(1→3)-α-D-glucopyranosyl-(1→}]
Increase of weight ([1]; 1% (w/w) CTS in feed): 164 g/individual/28 days
Weight ([1]; 1% (w/w) CTS in feed): 337 g/individual
Increase of weight ([1]; 2% (w/w) CTS in feed): 169 g/individual/28 days
Weight ([1]; 2% (w/w) CTS in feed): 342 g/individual
Increase of weight [1, 8]: 149* g/individual/28 days
Weight [1, 8]: 322* g/individual
Phospholipids in liver (male Wister-rats [2]; 1% (w/w) CTS in feed): 140 mg/individual
Total cholesterols in liver (male Wister-rats [2]; 1% (w/w) CTS in feed): 35.9 mg/individual
Total lipids in liver (male Wister-rats [2]; 1% (w/w) CTS in feed): 510 mg/individual
Triglycerides in liver (male Wister-rats [2]; 1% (w/w) CTS in feed): 186 mg/individual
Phospholipids in liver (male Wister-rats [2]; 2% (w/w) CTS in feed): 149 mg/individual
Total cholesterols in liver (male Wister-rats [2]; 2% (w/w) CTS in feed): 37.2 mg/individual
Total lipids in liver (male Wister-rats [2]; 2% (w/w) CTS in feed): 598 mg/individual
Triglycerides in liver (male Wister-rats [2]; 2% (w/w) CTS in feed): 254 mg/individual
Phospholipids in liver (male Wister-rats [2]; [8]): 142 mg/individual
Total cholesterols in liver (male Wister-rats [2]; [8]): 35.4 mg/individual
Total lipids in liver (male Wister-rats [2]; [8]): 575 mg/individual
Triglycerides in liver (male Wister-rats [2]; [8]): 239 mg/individual
Phospholipids (male Wister-rats [4]; 1% (w/w) CTS in feed): 116 mg/dL
Total cholesterols (male Wister-rats [4]; 1% (w/w) CTS in feed): 67.1 mg/dL
Triglycerides (male Wister-rats [4]; 1% (w/w) CTS in feed): 44.2 mg/dL
Phospholipids (male Wister-rats [4]; 2% (w/w) CTS in feed): 115 mg/dL
Total cholesterols (male Wister-rats [4]; 2% (w/w) CTS in feed): 66.1 mg/dL
Triglycerides (male Wister-rats [4]; 2% (w/w) CTS in feed): 28.7* mg/dl
Phospholipids (male Wister-rats [4]; [8]): 107 mg/dL
Total cholesterols (male Wister-rats [4]; [8]): 59.4* mg/dl
Triglycerides (male Wister-rats [4]; [8]): 21.7* mg/dl
Adipose surrounding intestinal membrane (male Wister-rats [5]; 1% (w/w) CTS in feed): 3.7 g/individual
Adipose surrounding kidney (male Wister-rats [5]; 1% (w/w) CTS in feed): 3.7* g/individual
Adipose surrounding testis (male Wister-rats [5]; 1% (w/w) CTS in feed): 4.0* g/individual
Adipose surrounding intestinal membrane (male Wister-rats [5]; 2% (w/w) CTS in feed): 3.1* g/individual
Adipose surrounding kidney (male Wister-rats [5]; 2% (w/w) CTS in feed): 2.9* g/individual
Adipose surrounding testis (male Wister-rats [5]; 2% (w/w) CTS in feed): 3.9* g/individual
Adipose surrounding intestinal membrane (male Wister-rats [5]; [8]): 1.9* g/individual
Adipose surrounding kidney (male Wister-rats [5]; [8]): 2.1* g/individual
Adipose surrounding testis (male Wister-rats [5]; [8]): 3.1* g/individual
Bile acids in cecum (male Wister-rats [7]; 1% (w/w) CTS in feed): 1.15* μmol
Bile acids in cecum (male Wister-rats [7]; 2% (w/w) CTS in feed): 1.36* μmol
Bile acids in cecum (male Wister-rats [7]; [8]): 1.53* μmol

From US8940715B2, “Lipid-regulating agent and use thereof” (Hayashibara Co., Ltd., priority 2003, dated 2015)
